Key:
[1] = cited from earlier work
[2] = cited from earlier work; remark: listed apart in the source
human A2AAR = human A2AAR (Homo sapiens, UniProt P29274); assay: Radioligand binding at human A2AAR expressed in CHO cells; conditions: read-out: % inhibition at 1 µM (hA2AAR)
[3] = molecular target: T1, human A3 adenosine receptor (Homo sapiens, UniProt P0DMS8); format: cell-based; conditions: transfected CHO cells
T1 sequence (P0DMS8 1-318): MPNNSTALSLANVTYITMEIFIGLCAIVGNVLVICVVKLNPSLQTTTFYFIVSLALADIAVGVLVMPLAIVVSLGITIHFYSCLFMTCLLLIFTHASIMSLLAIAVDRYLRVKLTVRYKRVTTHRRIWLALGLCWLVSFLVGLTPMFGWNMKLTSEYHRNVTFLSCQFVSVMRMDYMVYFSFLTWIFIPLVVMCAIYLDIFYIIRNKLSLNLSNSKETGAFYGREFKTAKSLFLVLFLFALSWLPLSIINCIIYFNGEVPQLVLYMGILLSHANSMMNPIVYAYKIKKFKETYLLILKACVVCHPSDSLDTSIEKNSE

human A2AAR, sequence (P29274 whole entry): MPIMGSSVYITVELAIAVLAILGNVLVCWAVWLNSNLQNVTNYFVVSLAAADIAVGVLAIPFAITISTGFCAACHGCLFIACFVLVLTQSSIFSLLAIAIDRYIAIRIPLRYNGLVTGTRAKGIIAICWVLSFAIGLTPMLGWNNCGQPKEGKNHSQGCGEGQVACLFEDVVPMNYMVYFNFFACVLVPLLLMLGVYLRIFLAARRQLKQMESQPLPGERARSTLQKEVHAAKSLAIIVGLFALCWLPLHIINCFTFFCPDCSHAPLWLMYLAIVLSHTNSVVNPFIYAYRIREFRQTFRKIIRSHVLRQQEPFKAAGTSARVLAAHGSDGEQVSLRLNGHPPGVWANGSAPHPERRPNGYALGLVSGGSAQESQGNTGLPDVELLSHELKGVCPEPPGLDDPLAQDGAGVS

Row | inhibition at 1 µM (human A2AAR) | Structure (SMILES) | further results
1 | – | CNC(=O)[C@H]1S[C@@H](n2cnc3c(NCc4cccc(I)c4)nc(Cl)nc32)[C@H](O)[C@@H]1O [Compound 3, thio-Cl-IB-MECA] | In vitro anticancer activity [1]: potent; In vivo anticancer activity [2]: potent
2 | 20% | CNC(=O)[C@H]1S[C@@H](n2cnc3c(NC)nc(Cl)nc32)[C@H](O)[C@@H]1O [Compound 4, reference compound] | –
3 | 35 ± 8% | CNC(=O)[C@H]1S[C@@H](n2cnc3c(NC)ncnc32)[C@H](O)[C@@H]1O [Compound 5a, N^6-Methyl-9-(5’-methylaminocarbonyl-4’-thio-β-D-ribofuranosyl)adenine] | –
4 | 20% | CCNC(=O)[C@H]1S[C@@H](n2cnc3c(NC)ncnc32)[C@H](O)[C@@H]1O [Compound 5b, 9-(5’-Ethylaminocarbonyl-4’-thio-β-D-ribofuranosyl)-N^6-methyladenine] | –
5 | 38 ± 5% | CNc1ncnc2c1ncn2[C@@H]1S[C@H](C(=O)NCC2CC2)[C@@H](O)[C@H]1O [Compound 5d, 9-(5’-Cyclopropylmethylaminocarbonyl-4’-thio-β-D-ribofuranosyl)-N^6-methyladenine] | –
6 | 45 ± 1% | CNc1ncnc2c1ncn2[C@@H]1S[C@H](C(=O)NC2CCCC2)[C@@H](O)[C@H]1O [Compound 5f, 9-(5’-Cyclopentylaminocarbonyl-4’-thio-β-D-ribofuranosyl)-N^6-methyladenine] | –
7 | 27 ± 10% | CNc1ncnc2c1ncn2[C@@H]1S[C@H](C(=O)NCc2cccc(I)c2)[C@@H](O)[C@H]1O [Compound 5g, 9-[(5’-(3-Iodo-benzylaminocarbonyl)-4’-thio-β-D-ribofuranosyl)]-N^6-methyladenine] | –
8 | – | CNC(=O)[C@H]1S[C@@H](n2cnc3c(NCc4cccc(I)c4)ncnc32)[C@H](O)[C@@H]1O [Compound 5h, N^6-(3-Iodo-benzyl)-9-(5’-methylaminocarbonyl-4’-thio-β-D-ribofuranosyl)adenine] | Agonist efficacy at human A3AR (inhibition of cyclic AMP) [3]: full agonist
9 | 24 ± 7% | O=C(NC1CCCCC1)[C@H]1S[C@@H](n2cnc3c(NCc4cccc(I)c4)ncnc32)[C@H](O)[C@@H]1O [Compound 5m, 9-(5’-Cyclohexylaminocarbonyl-4’-thio-β-D-ribofuranosyl)-N^6-(3-iodobenzyl)adenine] | –
10 | 35 ± 8% | O=C(NCc1cccc(F)c1)[C@H]1S[C@@H](n2cnc3c(NCc4cccc(I)c4)ncnc32)[C@H](O)[C@@H]1O [Compound 5n, 9-[5’-(3-Fluoro-benzylaminocarbonyl-4’-thio-β-D-ribofuranosyl)]-N^6-(3-iodobenzyl)adenine] | –
11 | 44 ± 1% | O=C(NCc1cccc(Cl)c1)[C@H]1S[C@@H](n2cnc3c(NCc4cccc(I)c4)ncnc32)[C@H](O)[C@@H]1O [Compound 5o, 9-[5’-(3-Chloro-benzylaminocarbonyl-4’-thio-β-D-ribofuranosyl)]-N^6-(3-iodobenzyl)adenine] | –
12 | 26 ± 10% | Cc1ccccc1CNC(=O)[C@H]1S[C@@H](n2cnc3c(NCc4cccc(I)c4)ncnc32)[C@H](O)[C@@H]1O [Compound 5p, N^6-(3-Iodo-benzyl)-9-[5’-(2-methyl-benzylaminocarbonyl-4’-thio-β-D-ribofuranosyl)]adenine] | –
13 | 31 ± 1% | Cc1cccc(CNC(=O)[C@H]2S[C@@H](n3cnc4c(NCc5cccc(I)c5)ncnc43)[C@H](O)[C@@H]2O)c1 [Compound 5q, N^6-(3-Iodo-benzyl)-9-[5’-(3-methyl-benzylaminocarbonyl-4’-thio-β-D-ribofuranosyl)]adenine] | –
14 | 37% | Cc1ccc(CNC(=O)[C@H]2S[C@@H](n3cnc4c(NCc5cccc(I)c5)ncnc43)[C@H](O)[C@@H]2O)cc1 [Compound 5r, N^6-(3-Iodo-benzyl)-9-[5’-(4-methyl-benzylaminocarbonyl-4’-thio-β-D-ribofuranosyl)]adenine] | –
15 | 28 ± 9% | COc1ccccc1CNC(=O)[C@H]1S[C@@H](n2cnc3c(NCc4cccc(I)c4)ncnc32)[C@H](O)[C@@H]1O [Compound 5s, N^6-(3-Iodo-benzyl)-9-[5’-(2-methoxy-benzylaminocarbonyl-4’-thio-β-D-ribofuranosyl)]adenine] | –
16 | 23 ± 8% | CCOc1ccccc1CNC(=O)[C@H]1S[C@@H](n2cnc3c(NCc4cccc(I)c4)ncnc32)[C@H](O)[C@@H]1O [Compound 5t, 9-[5’-(2-Ethoxy-benzylaminocarbonyl-4’-thio-β-D-ribofuranosyl)]-N^6-(3-iodobenzyl)adenine] | –
17 | 11% | O=C(NCCc1ccccc1)[C@H]1S[C@@H](n2cnc3c(NCc4cccc(I)c4)ncnc32)[C@H](O)[C@@H]1O [Compound 5v, N^6-(3-Iodo-benzyl)-9-[5’-(2-phenetylaminocarbonyl-4’-thio-β-D-ribofuranosyl)]adenine] | –

Reference: article PMC2797373 (Bioorganic & medicinal chemistry, 2009)
